Source: US12559474B2, “Triazine derivatives having virus replication inhibitory activity and pharmaceutical composition comprising the same” (priority 2021, dated 2026)
Where two headings read alike, the source gives them in different places.

Columns and labels:
SARS-CoV-2 = assay: microbe, parasite or virus in culture; type: cell-based; details: Severe acute respiratory syndrome coronavirus 2, VeroE6/TMPRSS2, 72 h, 50% SARS-CoV-2 infected cell death inhibitory concentration, VeroE6/TMPRSS2 cells, 3 days culture
SARS-CoV-2 3CL protease = SARS-CoV-2 3CL protease (Severe acute respiratory syndrome coronavirus 2, UniProt P0DTD1); assay: biochemical; details: 50% SARS-CoV-2 3CL protease inhibitory concentration, read-out: IC50

Structure (SMILES)	EC50 (SARS-CoV-2; class symbols)	IC50 (SARS-CoV-2 3CL protease; RapidFire MS)	EC50 (SARS-CoV-2; CellTiter-Glo 2.0)	IC50 (SARS-CoV-2 3CL protease; given as class symbols)
Cc1cncc(-n2c(=O)nc(NC3CCC3)n(Cc3cc(F)c(F)c(F)c3)c2=O)c1 [II-0227]	< 1 µM	0.63 µM		
O=c1[nH]cccc1Cn1c(=O)nc(NC2CCCCC2)n(Cc2cc(F)c(F)c(F)c2)c1=O [II-0228]		0.24 µM	5 µM	
CSc1nc(=O)n(-c2cncc3ccccc23)c(=O)n1Cc1cc(F)c(F)c(F)c1 [II-0232]	< 1 µM	3.7 µM		
CCn1cc2cc(Nc3nc(=O)n(-c4cncc(C)c4)c(=O)n3Cc3cc(C#N)c(F)cc3C)c(Cl)cc2n1 [II-0233]		0.0015 µM	0.065 µM	
CNc1nc2cc(F)c(Nc3nc(=O)n(-c4cncc(C)c4)c(=O)n3Cc3cc(C#N)c(F)cc3C)cc2s1 [II-0234]	< 1 µM			< 0.1 µM
CNc1nc2cc(Cl)c(Nc3nc(=O)n(Cc4ncn(C)n4)c(=O)n3Cc3cc(F)c(F)c(Cl)c3)cc2s1 [II-0235]	1 to 10 µM			< 0.1 µM
CNc1nc2cc(Cl)c(Nc3nc(=O)n(-c4cncc(C)c4)c(=O)n3Cc3cc(F)c(F)cc3F)cc2s1 [II-0236]	< 1 µM			< 0.1 µM
O=c1nc(Nc2cc3sc(NC4CC4)nc3cc2Cl)n(Cc2cc(Cl)c(F)cc2F)c(=O)n1Cc1ncccn1 [II-0237]	< 1 µM			< 0.1 µM
O=c1nc(Nc2cc3cn(CCO)nc3cc2Cl)n(Cc2cc(Cl)c(F)cc2F)c(=O)n1Cc1ncccn1 [II-0238]	1 to 10 µM			< 0.1 µM
CNc1nc2cc(Cl)c(Nc3nc(=O)n(Cc4ncccn4)c(=O)n3Cc3cc(Cl)c(F)cc3F)cc2s1 [II-0239]	1 to 10 µM			< 0.1 µM
CC(C)(O)Cn1cc2cc(Nc3nc(=O)n(Cc4ncccn4)c(=O)n3Cc3cc(Cl)c(F)cc3F)c(Cl)cc2n1 [II-0240]	1 to 10 µM			< 0.1 µM
CC(C)(O)Cn1cc2cc(Nc3nc(=O)n(Cc4ncccn4)c(=O)n3Cc3cc(F)c(F)c(Cl)c3)c(Cl)cc2n1 [II-0241]		0.024 µM	1.39 µM	
Cn1cc2cc(Nc3nc(=O)n(Cc4ncccn4)c(=O)n3Cc3cc(Cl)c(F)cc3F)c(Cl)cc2n1 [II-0242]	< 1 µM			< 0.1 µM
Cn1cnc(Cn2c(=O)nc(Nc3cc4sc(NCC(F)F)nc4cc3Cl)n(Cc3cc(F)c(F)c(Cl)c3)c2=O)n1 [II-0243]	1 to 10 µM			< 0.1 µM
Cc1cncc(-n2c(=O)nc(Nc3cc4sc(NCC(F)(F)F)nc4cc3F)n(Cc3ccc(F)c(C#N)c3)c2=O)c1 [II-0244]	1 to 10 µM			< 0.1 µM
Cn1cc2cc(Nc3nc(=O)n(Cc4ncccn4)c(=O)n3Cc3cc(F)c(F)cc3F)c(Cl)cc2n1 [II-0245]	< 1 µM			< 0.1 µM
Cn1cc2cc(Nc3nc(=O)n(Cc4nccc(N)n4)c(=O)n3Cc3cc(F)c(F)cc3F)c(Cl)cc2n1 [II-0246]	1 to 10 µM			< 0.1 µM
Cn1ccc(-c2ccnc(Cn3c(=O)nc(Nc4cc5cn(C)nc5cc4Cl)n(Cc4cc(F)c(F)cc4F)c3=O)c2)n1 [II-0247]	< 1 µM			< 0.1 µM
O=c1nc(Nc2cc3cn(CCO)nc3cc2Cl)n(Cc2cc(F)c(F)cc2F)c(=O)n1Cc1ccccn1 [II-0249]	1 to 10 µM			< 0.1 µM
Cn1ccc(-c2ccnc(Cn3c(=O)nc(Nc4cc5cn(C)nc5cc4Cl)n(Cc4cc(F)c(F)cc4F)c3=O)n2)n1 [II-0250]	1 to 10 µM			< 0.1 µM
Cn1cc2cc(Nc3nc(=O)n(Cc4ccccn4)c(=O)n3Cc3cc(F)c(F)cc3F)c(Cl)cc2n1 [II-0251]	< 1 µM			< 0.1 µM
COc1ccnc(Cn2c(=O)nc(Nc3cc4cn(C)nc4cc3Cl)n(Cc3cc(F)c(F)cc3F)c2=O)c1 [II-0252]	1 to 10 µM			< 0.1 µM
CNc1ccnc(Cn2c(=O)nc(Nc3cc4cn(C)nc4cc3Cl)n(Cc3cc(F)c(F)cc3F)c2=O)n1 [II-0253]	1 to 10 µM			< 0.1 µM
Cn1cc(-c2ccnc(Cn3c(=O)nc(Nc4cc5cn(C)nc5cc4Cl)n(Cc4cc(F)c(F)cc4F)c3=O)c2)cn1 [II-0254]	1 to 10 µM			< 0.1 µM
Cn1cc2cc(Nc3nc(=O)n(Cc4cc(Cl)ccn4)c(=O)n3Cc3cc(F)c(F)cc3F)c(Cl)cc2n1 [II-0255]		0.1 µM	1.52 µM	
COc1ccc(Nc2nc(=O)n(Cc3ncn(C(F)F)n3)c(=O)n2Cc2cc(F)c(F)c(F)c2)cc1 [II-0257]		0.97 µM	9.14 µM	
COc1ccc(Nc2nc(=O)n(Cc3cscn3)c(=O)n2Cc2cc(F)c(F)c(F)c2)cc1 [II-0258]		0.95 µM	7.87 µM	
COc1ccc(Nc2nc(=O)n(CC3CCN(C)C3)c(=O)n2Cc2cc(F)c(F)c(F)c2)cc1 (stereo not shown) [II-0259]		3.4 µM	36.3 µM	
CCc1nc2cc(Cl)c(Nc3nc(=O)n(Cc4ncn(C)n4)c(=O)n3Cc3cc(Cl)c(F)cc3F)cc2s1 [II-0260]	< 1 µM			< 0.1 µM
